Assay results from patent publication US6683027B2, “Herbicidal mixtures” (BASF Aktienegesellschaft, priority 2000, dated 2004).

Legend:
Type in all cases: in vivo
Setaria viridis [1] = experiment: greenhouse pre-emergence trial, percent damage vs untreated control 21 days after treatment; conditions: SETVI, Example 1A
Matricaria inodora [2] = experiment: as above; conditions: 3.75 g/ha, MATIN, Example 2
Stellaria media [3] = experiment: as above; conditions: STEME
Alopecurus myosuroides [4] = experiment: as above; conditions: ALOMY
Papaver rhoeas [5] = experiment: as above; conditions: PAPRH
Galium aparine [6] = experiment: as above; conditions: GALAP
Veronica persica [7] = experiment: as above; conditions: VERPE
Matricaria inodora [8] = experiment: greenhouse post-emergence trial, percent damage vs untreated control 21 days after treatment; conditions: MATIN
Experimental: (§1) The trials are carried out under greenhouse conditions in pre- and post-emergence applications. The plant seeds are sown in pots containing a loamy sand soil (0.5 l). The herbicides are applied as single treatments, or in a combination comprising a compound of formula I and compound selected from group (2) as defined above, before or after emergence of weeds and crop. The herbicidal performance is assessed as percent damage in comparison to the untreated control plants. The assessment is done 21 days after the treatment. Wheat and barley are treated at the 3-4 leaf stage, the broad-leaf weeds at the 2-4 leaf stage and annual grasses at the 2-3 leaf stage.

Setaria viridis [9] = experiment: as above; conditions: SETVI
Experimental: as §1

Galium aparine [10] = experiment: as above; conditions: GALAP
Experimental: as §1

Lolium perenne = experiment: as above; conditions: LOLPE
Experimental: as §1

Apera spica-venti = experiment: as above; conditions: APESV
Experimental: as §1

Veronica persica [11] = experiment: as above; conditions: 3.75 g/ha, VERPE, Example 1B
Experimental: as §1

Lamium purpureum = experiment: as above; conditions: LAMPU
Experimental: as §1

Papaver rhoeas [12] = experiment: as above; conditions: PAPRH, Example 1B
Experimental: as §1

Alopecurus myosuroides [13] = experiment: as above; conditions: ALOMY
Experimental: as §1

Stellaria media [14] = experiment: as above; conditions: STEME
Experimental: as §1

FC(F)(F)c1ccc(-c2nccc(Oc3cccc(C(F)(F)F)c3)n2)cc1 [Compound A, 4-(3-trifluoromethylphenoxy)-2-(4-trifluoromethylphenyl)-pyrimidine]
Compound A alone (% control) (Setaria viridis [1]; 3.75 g/ha): 0% | Compound A alone (% control) (Setaria viridis [1]; 7.5 g/ha): 35% | Compound A alone (% control) (Matricaria inodora [2]): 50% | Compound A alone (% control) (Stellaria media [3]; 3.75 g/ha, Example 1A): 0% | Compound A alone (% control) (Stellaria media [3]; 7.5 g/ha, Example 1A): 10% | Compound A alone (% control) (Stellaria media [3]; 7.5 g/ha, Example 2): 5% | Compound A alone (% control) (Stellaria media [3]; 15 g/ha, Example 1A): 60% | Compound A alone (% control) (Alopecurus myosuroides [4]; 3.75 g/ha, Example 1A): 0% | Compound A alone (% control) (Alopecurus myosuroides [4]; 3.75 g/ha, Example 3): 0% | Compound A alone (% control) (Alopecurus myosuroides [4]; 7.5 g/ha, Example 1A): 5% | Compound A alone (% control) (Alopecurus myosuroides [4]; 7.5 g/ha, Example 3): 0% | Compound A alone (% control) (Papaver rhoeas [5]; 3.75 g/ha, Example 1A): 63% | Compound A alone (% control) (Papaver rhoeas [5]; 3.75 g/ha, Example 2): 0% | Compound A alone (% control) (Papaver rhoeas [5]; 7.5 g/ha, Example 2): 15% | Compound A alone (% control) (Galium aparine [6]; 3.75 g/ha, Example 1A): 0% | Compound A alone (% control) (Galium aparine [6]; 3.75 g/ha, Example 2): 0% | Compound A alone (% control) (Galium aparine [6]; 7.5 g/ha, Example 2): 0% | Compound A alone (% control) (Galium aparine [6]; 15 g/ha, Example 2): 10% | Compound A alone (% control) (Galium aparine [6]; 15 g/ha, Example 3): 0% | Compound A alone (% control) (Galium aparine [6]; 30 g/ha, Example 3): 0% | Compound A alone (% control) (Galium aparine [6]; 60 g/ha, Example 3): 10% | Compound A alone (% control) (Veronica persica [7]; 3.75 g/ha, Example 1A): 13% | Compound A alone (% control) (Veronica persica [7]; 3.75 g/ha, Example 2): 0% | Compound A alone (% control) (Veronica persica [7]; 7.5 g/ha, Example 1A): 33% | Compound A alone (% control) (Veronica persica [7]; 7.5 g/ha, Example 2): 23% | Compound A alone (% control) (Veronica persica [7]; 15 g/ha, Example 2): 60% | Compound A alone (% control) (Matricaria inodora [8]; 3.75 g/ha, Example 10): 5% | Compound A alone (% control) (Matricaria inodora [8]; 7.5 g/ha, Example 10): 13% | Compound A alone (% control) (Matricaria inodora [8]; 7.5 g/ha, Example 13): 15% | Compound A alone (% control) (Matricaria inodora [8]; 15 g/ha, Example 9): 48% | Compound A alone (% control) (Matricaria inodora [8]; 15 g/ha, Example 10): 30% | Compound A alone (% control) (Setaria viridis [9]; 3.75 g/ha, Example 1B): 0% | Compound A alone (% control) (Setaria viridis [9]; 3.75 g/ha, Example 4): 15% | Compound A alone (% control) (Setaria viridis [9]; 3.75 g/ha, Example 5): 0% | Compound A alone (% control) (Setaria viridis [9]; 3.75 g/ha, Example 9): 0% | Compound A alone (% control) (Setaria viridis [9]; 3.75 g/ha, Example 10): 4% | Compound A alone (% control) (Setaria viridis [9]; 3.75 g/ha, Example 14): 0% | Compound A alone (% control) (Setaria viridis [9]; 7.5 g/ha, Example 1B): 23% | Compound A alone (% control) (Setaria viridis [9]; 7.5 g/ha, Example 5): 8% | Compound A alone (% control) (Setaria viridis [9]; 7.5 g/ha, Example 9): 5% | Compound A alone (% control) (Setaria viridis [9]; 7.5 g/ha, Example 10): 15% | Compound A alone (% control) (Setaria viridis [9]; 15 g/ha, Example 1B): 55% | Compound A alone (% control) (Setaria viridis [9]; 15 g/ha, Example 5): 58% | Compound A alone (% control) (Galium aparine [10]; 3.75 g/ha, Example 5): 10% | Compound A alone (% control) (Galium aparine [10]; 3.75 g/ha, Example 10): 13% | Compound A alone (% control) (Galium aparine [10]; 3.75 g/ha, Example 14): 40% | Compound A alone (% control) (Galium aparine [10]; 7.5 g/ha, Example 5): 23% | Compound A alone (% control) (Galium aparine [10]; 15 g/ha, Example 10): 20% | Compound A alone (% control) (Galium aparine [10]; 15 g/ha, Example 12): 0% | Compound A alone (% control) (Galium aparine [10]; 30 g/ha, Example 12): 20% | Compound A alone (% control) (Galium aparine [10]; 60 g/ha, Example 10): 55% | Compound A alone (% control) (Lolium perenne; 3.75 g/ha, Example 1B): 10% | Compound A alone (% control) (Lolium perenne; 3.75 g/ha, Example 12): 0% | Compound A alone (% control) (Lolium perenne; 7.5 g/ha, Example 1B): 28% | Compound A alone (% control) (Lolium perenne; 7.5 g/ha, Example 4): 23% | Compound A alone (% control) (Lolium perenne; 15 g/ha, Example 1B): 50% | Compound A alone (% control) (Lolium perenne; 15 g/ha, Example 5): 23% | Compound A alone (% control) (Lolium perenne; 30 g/ha, Example 6): 60% | Compound A alone (% control) (Lolium perenne; 30 g/ha, Example 7): 65% | Compound A alone (% control) (Lolium perenne; 30 g/ha, Example 13): 28% | Compound A alone (% control) (Lolium perenne; 60 g/ha, Example 7): 75% | Compound A alone (% control) (Lolium perenne; 60 g/ha, Example 8): 75% | Compound A alone (% control) (Lolium perenne; 60 g/ha, Example 11): 40% | Compound A alone (% control) (Lolium perenne; 60 g/ha, Example 13): 63% | Compound A alone (% control) (Apera spica-venti; 3.75 g/ha, Example 1B): 25% | Compound A alone (% control) (Apera spica-venti; 3.75 g/ha, Example 7): 10% | Compound A alone (% control) (Apera spica-venti; 3.75 g/ha, Example 8): 10% | Compound A alone (% control) (Apera spica-venti; 3.75 g/ha, Example 12): 0% | Compound A alone (% control) (Apera spica-venti; 7.5 g/ha, Example 1B): 35% | Compound A alone (% control) (Apera spica-venti; 7.5 g/ha, Example 4): 50% | Compound A alone (% control) (Apera spica-venti; 7.5 g/ha, Example 10): 20% | Compound A alone (% control) (Apera spica-venti; 7.5 g/ha, Example 13): 10% | Compound A alone (% control) (Apera spica-venti; 7.5 g/ha, Example 14): 5% | Compound A alone (% control) (Apera spica-venti; 15 g/ha, Example 1B): 40% | Compound A alone (% control) (Apera spica-venti; 15 g/ha, Example 10): 50% | Compound A alone (% control) (Apera spica-venti; 15 g/ha, Example 14): 10% | Compound A alone (% control) (Apera spica-venti; 30 g/ha, Example 5): 68% | Compound A alone (% control) (Apera spica-venti; 30 g/ha, Example 12): 53% | Compound A alone (% control) (Veronica persica [11]): 80% | Compound A alone (% control) (Lamium purpureum; 3.75 g/ha, Example 4): 20% | Compound A alone (% control) (Lamium purpureum; 3.75 g/ha, Example 7): 20% | Compound A alone (% control) (Lamium purpureum; 3.75 g/ha, Example 8): 20% | Compound A alone (% control) (Lamium purpureum; 3.75 g/ha, Example 12): 35% | Compound A alone (% control) (Lamium purpureum; 7.5 g/ha, Example 7): 35% | Compound A alone (% control) (Lamium purpureum; 7.5 g/ha, Example 8): 35% | Compound A alone (% control) (Lamium purpureum; 7.5 g/ha, Example 12): 55% | Compound A alone (% control) (Lamium purpureum; 15 g/ha, Example 1B): 83% | Compound A alone (% control) (Lamium purpureum; 15 g/ha, Example 7): 50% | Compound A alone (% control) (Lamium purpureum; 15 g/ha, Example 8): 50% | Compound A alone (% control) (Papaver rhoeas [12]; 3.75 g/ha): 30% | Compound A alone (% control) (Papaver rhoeas [12]; 7.5 g/ha): 65% | Compound A alone (% control) (Alopecurus myosuroides [13]; 3.75 g/ha, Example 1B): 10% | Compound A alone (% control) (Alopecurus myosuroides [13]; 3.75 g/ha, Example 12): 0% | Compound A alone (% control) (Alopecurus myosuroides [13]; 3.75 g/ha, Example 13): 3% | Compound A alone (% control) (Alopecurus myosuroides [13]; 7.5 g/ha, Example 1B): 28% | Compound A alone (% control) (Alopecurus myosuroides [13]; 7.5 g/ha, Example 4): 23% | Compound A alone (% control) (Alopecurus myosuroides [13]; 7.5 g/ha, Example 5): 3% | Compound A alone (% control) (Alopecurus myosuroides [13]; 7.5 g/ha, Example 13): 5% | Compound A alone (% control) (Alopecurus myosuroides [13]; 15 g/ha, Example 1B): 45% | Compound A alone (% control) (Alopecurus myosuroides [13]; 15 g/ha, Example 4): 28% | Compound A alone (% control) (Alopecurus myosuroides [13]; 15 g/ha, Example 5): 8% | Compound A alone (% control) (Alopecurus myosuroides [13]; 15 g/ha, Example 12): 0% | Compound A alone (% control) (Alopecurus myosuroides [13]; 15 g/ha, Example 13): 8% | Compound A alone (% control) (Alopecurus myosuroides [13]; 30 g/ha, Example 4): 50% | Compound A alone (% control) (Alopecurus myosuroides [13]; 30 g/ha, Example 5): 23% | Compound A alone (% control) (Alopecurus myosuroides [13]; 30 g/ha, Example 12): 10% | Compound A alone (% control) (Alopecurus myosuroides [13]; 30 g/ha, Example 13): 15% | Compound A alone (% control) (Alopecurus myosuroides [13]; 30 g/ha, Example 14): 15% | Compound A alone (% control) (Alopecurus myosuroides [13]; 60 g/ha, Example 5): 28% | Compound A alone (% control) (Alopecurus myosuroides [13]; 60 g/ha, Example 13): 43% | Compound A alone (% control) (Alopecurus myosuroides [13]; 60 g/ha, Example 14): 33% | Compound A alone (% control) (Stellaria media [14]; 3.75 g/ha, Example 1B): 10% | Compound A alone (% control) (Stellaria media [14]; 3.75 g/ha, Example 4): 28% | Compound A alone (% control) (Stellaria media [14]; 7.5 g/ha, Example 1B): 18% | Compound A alone (% control) (Stellaria media [14]; 7.5 g/ha, Example 13): 30% | Compound A alone (% control) (Stellaria media [14]; 15 g/ha, Example 1B): 45% | Compound A alone (% control) (Stellaria media [14]; 15 g/ha, Example 9): 70% | Compound A alone (% control) (Stellaria media [14]; 30 g/ha, Example 1B): 70%
